“And” between values parts separate entries of the source, which are not always exact repeats. Equal entries are not always repeated. Numbers after ± are expanded uncertainties.
Conditions: Liquid

Structure (SMILES) | vapor or sublimation pressure (373.15 K) | vapor or sublimation pressure (423.15 K) | also measured
CCOC(C)=O [ethyl acetate] | 202.9 ± 2.6 kPa | 687.53 ± 8.6 kPa | 
NCCO [2-aminoethan-1-ol] | 6.16 ± 1 kPa and 6.17 ± 1 kPa and 6.64 ± 1 kPa | 50.62 ± 1.2 kPa and 52.71 ± 1.2 kPa and 51.97 ± 1.2 kPa | 
O=C=S [carbonyl sulfide] |  |  | vapor or sublimation pressure (248.15 K): 282.15 ± 3.6 kPa and 287.13 ± 3.7 kPa; vapor or sublimation pressure (273.15 K): 638.23 ± 8 kPa and 651.42 ± 8.2 kPa
CC(C)(C)O [2-methylpropan-2-ol] | 192.46 ± 2.5 kPa and 191.18 ± 2.5 kPa | 818.16 ± 10 kPa and 816.37 ± 10 kPa | 
CCCCC [pentane] |  |  | vapor or sublimation pressure (333.15 K): 215.21 ± 2.8 kPa; vapor or sublimation pressure (393.15 K): 917.75 ± 11 kPa
S=C=S [carbon disulfide] |  |  | vapor or sublimation pressure (248.15 K): 4.5 ± 1 kPa; vapor or sublimation pressure (273.15 K): 17.3 ± 1 kPa
COCC(C)O (stereo unspecified) [1-methoxy-2-propanol] | 50.45 ± 1.2 kPa and 48.26 ± 1.2 kPa and 48.55 ± 1.2 kPa | 232.13 ± 3 kPa [middle of 4 runs] | vapor or sublimation pressure (473.15 K): 739.81 ± 9.4 kPa
O=Cc1ccco1 [2-furaldehyde] | 14.62 ± 1 kPa and 14.65 ± 1 kPa | 77.51 ± 1.4 kPa and 76.13 ± 1.4 kPa | 
C=CCO [2-propenol] | 113.1 ± 1.7 kPa and 109.94 ± 1.7 kPa and 109.95 ± 1.7 kPa | 520.67 ± 6.5 kPa and 518.64 ± 6.5 kPa and 518.11 ± 6.5 kPa | 
O=C=O [carbon dioxide] |  |  | vapor or sublimation pressure (248.15 K): 1672.6 ± 21 kPa; vapor or sublimation pressure (273.15 K): 3485.1 ± 43 kPa
CCCCO [butan-1-ol] |  |  | vapor or sublimation pressure (333.15 K): 8.39 ± 1 kPa; vapor or sublimation pressure (393.15 K): 110.26 ± 1.6 kPa
CCCCOC(C)=O [butyl ethanoate] | 44.71 ± 1.2 kPa and 42.55 ± 1.1 kPa | 195.63 ± 2.5 kPa and 188.81 ± 2.4 kPa and 191.33 ± 2.5 kPa | vapor or sublimation pressure (473.15 K): 583.23 ± 7.3 kPa

From the NIST ThermoML archive (doi:10.1021/je400885z)
